Experimental data as given in patent publication US7709482B2, “Polycyclic heteroaryl substituted triazoles useful as Axl inhibitors” (Rigel Pharmaceuticals, Inc., priority 2006, dated 2010).
Read-outs that look alike come from different tables or passages of the source.

Molecular target: T1, Axl (Homo sapiens, UniProt P30530)
T1 construct: endogenous in cells; host or cells: HeLa cells
T1 sequence (P30530 26-894): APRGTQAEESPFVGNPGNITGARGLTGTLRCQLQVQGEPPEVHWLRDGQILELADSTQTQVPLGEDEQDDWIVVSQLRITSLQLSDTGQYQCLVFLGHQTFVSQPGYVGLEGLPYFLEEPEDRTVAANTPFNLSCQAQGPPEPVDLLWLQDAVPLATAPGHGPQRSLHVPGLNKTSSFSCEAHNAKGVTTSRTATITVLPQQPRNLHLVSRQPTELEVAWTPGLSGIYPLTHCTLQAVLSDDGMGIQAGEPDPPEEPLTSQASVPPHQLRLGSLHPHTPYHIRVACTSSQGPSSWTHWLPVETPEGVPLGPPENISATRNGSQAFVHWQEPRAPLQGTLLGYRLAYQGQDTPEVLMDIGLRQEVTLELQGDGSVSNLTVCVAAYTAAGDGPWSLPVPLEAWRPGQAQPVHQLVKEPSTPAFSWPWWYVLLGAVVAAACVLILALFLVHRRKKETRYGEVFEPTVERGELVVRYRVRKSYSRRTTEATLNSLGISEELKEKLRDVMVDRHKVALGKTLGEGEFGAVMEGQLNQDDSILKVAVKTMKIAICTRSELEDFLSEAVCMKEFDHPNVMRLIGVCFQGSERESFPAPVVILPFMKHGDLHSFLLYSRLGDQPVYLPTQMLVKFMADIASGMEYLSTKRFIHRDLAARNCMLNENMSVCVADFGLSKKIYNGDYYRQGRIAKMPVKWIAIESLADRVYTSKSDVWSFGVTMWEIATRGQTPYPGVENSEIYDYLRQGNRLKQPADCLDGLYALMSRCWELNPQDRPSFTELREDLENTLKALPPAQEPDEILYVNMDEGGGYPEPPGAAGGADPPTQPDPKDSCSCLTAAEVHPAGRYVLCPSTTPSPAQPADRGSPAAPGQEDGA
Test: Phospho-Akt In-Cell Western Assay (inhibition of Axl activity after Axl-antibody cross-linking)
Assay type: cell-based
In short: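 HeLa cells on poly-L-lysine, starved 24 h in 0.5% FCS DMEM with Axl/Fc 500 ng/mL, pre-treated with compound 1 h at 37 °C, then stimulated 5 min by anti-Axl/anti-mouse antibody cross-linking. Fixed cells probed for phospho-Akt with HRP secondary and chemiluminescent detection.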

[1] = inhibition of Axl activity, Table 1, compounds of formula (Ia), read-out: IC50
[2] = Hela cells, phospho-Akt chemiluminescence normalized to relative cell number, compounds of formula (Ib), Table 2, read-out: IC50

SMILES | IC50 [2] [µM] | further results
Nc1nc(Nc2ccc3c(c2)CCC(N2CCC2)CC3)nn1-c1cc2c(nn1)-c1ccccc1CCC2 (centres unmarked) [Compound 151, 1-(6,7-dihydro-5H-benzo[6,7]cyclohepta[1,2-c]pyridazin-3-yl)-N^3-((7-azetidin-1-yl)-6,7,8,9-tetrahydro-5H-benzo[7]annulene-2-yl)-1H-1,2,4-triazole-3,5-diamine] |  | IC50 [1]: < 1 µM
Nc1nc(Nc2cnc3c(c2)CCC(N2CCCC2)CC3)nn1-c1cc2c(nn1)-c1ccccc1CCC2 (centres unmarked) [Compound 152, 1-(6,7-dihydro-5H-benzo[6,7]cyclohepta[1,2-c]pyridazin-3-yl)-N^3-((7-pyrrolidin-1-yl)-6,7,8,9-tetrahydro-5H-cyclohepta[b]pyridine-3-yl)-1H-1,2,4-triazole-3,5-diamine] |  | IC50 [1]: < 1 µM
Nc1nc(Nc2ccc3c(c2)CN(C2CCCC2)CC3)nn1-c1cc2c(nn1)-c1ccccc1CCC2 [Compound 153, 1-(6,7-dihydro-5H-benzo[6,7]cyclohepta[1,2-c]pyridazin-3-yl)-N^3-(2-cyclopentyl-1,2,3,4-tetrahydroisoquinolin-7-yl)-1H-1,2,4-triazole-3,5-diamine] |  | IC50 [1]: < 1 µM
Nc1nc(Nc2ccc(I)cc2)nn1-c1cc2c(nn1)-c1ccccc1CCC2 [Compound 156, 1-(6,7-dihydro-5H-benzo[6,7]cyclohepta[1,2-c]pyridazin-3-yl)-N^3-(4-iodophenyl)-1H-1,2,4-triazole-3,5-diamine] |  | IC50 [1]: > 20 µM
Nc1nc(Nc2ccc(N3CCC(N4C(=O)Cc5ccccc54)CC3)c(F)c2)n(-c2cc3c(nn2)-c2ccccc2CCC3)n1 [Compound 157, 1-(6,7-dihydro-5H-benzo[6,7]cyclohepta[1,2-c]pyridazin-3-yl)-N^5-(3-fluoro-4-(4-(indolin-2-on-1-yl)piperidin-1-yl)phenyl)-1H-1,2,4-triazole-3,5-diamine] |  | IC50: > 20 µM
Nc1nc(Nc2ccc(N3CCC(N4CCOCC4)CC3)c(F)c2)n(-c2cc3c(nn2)-c2ccccc2CCC3)n1 [Compound 158, 1-(6,7-dihydro-5H-benzo[6,7]cyclohepta[1,2-c]pyridazin-3-yl)-N^5-(3-fluoro-4-(4-(morpholin-4-yl)piperidin-1-yl)phenyl)-1H-1,2,4-triazole-3,5-diamine] | > 20 | 
CN(C)Cc1nc2cc(Nc3nc(N)nn3-c3cc4c(nn3)-c3ccccc3CCC4)ccc2[nH]1 [Compound 159, 1-(6,7-dihydro-5H-benzo[6,7]cyclohepta[1,2-c]pyridazin-3-yl)-N^5-(2-((dimethylamino)methyl)-1H-benzo[d]imidazol-5-yl)-1H-1,2,4-triazole-3,5-diamine] | > 20 | 
CC1CN(c2ccc(Nc3nc(N)nn3-c3cc4c(nn3)-c3ccccc3CCC4)cc2)CC(C)N1 (centres unmarked) [Compound 160, 1-(6,7-dihydro-5H-benzo[6,7]cyclohepta[1,2-c]pyridazin-3-yl)-N^5-(4-(3,5-dimethylpiperazin-1-yl)phenyl)-1H-1,2,4-triazole-3,5-diamine] | < 1 | 
CN(C1CCc2ccc(Nc3nc(N)nn3-c3cc4c(nn3)-c3ccccc3CCC4)cc2CC1)C1CC2CCC1C2 (centres unmarked) [Compound 161, 1-(6,7-dihydro-5H-benzo[6,7]cyclohepta[1,2-c]pyridazin-3-yl)-N^5-(7-((bicyclo[2.2.1]heptan-2-yl)(methyl)amino)-6,7,8,9-tetrahydro-5H-benzo[7]annulene-2-yl)-1H-1,2,4-triazole-3,5-diamine] | 1 to 10 | 
CN1CCN(c2ccc(Nc3nc(N)nn3-c3cc4c(nn3)-c3ccccc3N(C)CC4)cc2)CC1 [Compound 162, 1-(7-methyl-6,7-dihydro-5H-benzo[2,3]azepino[4,5-c]pyridazin-3-yl)-N^5-(4-(N-methylpiperazin-1-yl)phenyl)-1H-1,2,4-triazole-3,5-diamine] | > 20 | 
Nc1nc(Nc2ccc(CC3C(=O)Nc4ccc(F)cc43)cc2)n(-c2cc3c(nn2)-c2ccccc2CCC3)n1 (centres unmarked) [Compound 163, 1-(6,7-dihydro-5H-benzo[6,7]cyclohepta[1,2-c]pyridazin-3-yl)-N^5-(4-((5-fluoroindolin-2-on-3-yl)methyl)phenyl)-1H-1,2,4-triazole-3,5-diamine] | > 20 | 
Nc1nc(Nc2ccc(N3CCC(N4CCCC4)CC3)cc2)n(-c2cc3c(nn2)-c2ccccc2CCC3)n1 [Compound 164, 1-(6,7-dihydro-5H-benzo[6,7]cyclohepta[1,2-c]pyridazin-3-yl)-N^5-(4-(4-pyrrolidin-1-ylpiperidinyl)phenyl)-1H-1,2,4-triazole-3,5-diamine] | 1 to 10 | 
Nc1nc(Nc2ccc(CN3CCC(N4CCCC4)CC3)cc2)n(-c2cc3c(nn2)-c2ccccc2CCC3)n1 [Compound 165, 1-(6,7-dihydro-5H-benzo[6,7]cyclohepta[1,2-c]pyridazin-3-yl)-N^5-(4-((4-pyrrolidin-1-ylpiperidinyl)methyl)phenyl)-1H-1,2,4-triazole-3,5-diamine] | < 1 | 
Nc1nc(Nc2ccc(CN3CCN(C4CCCC4)CC3)cc2)n(-c2cc3c(nn2)-c2ccccc2CCC3)n1 [Compound 166, 1-(6,7-dihydro-5H-benzo[6,7]cyclohepta[1,2-c]pyridazin-3-yl)-N^5-(4-((4-cyclopentylpiperazinyl)methyl)phenyl)-1H-1,2,4-triazole-3,5-diamine] | 1 to 10 | 
CC(C)N1CCN(Cc2ccc(Nc3nc(N)nn3-c3cc4c(nn3)-c3ccccc3CCC4)cc2)CC1 [Compound 167, 1-(6,7-dihydro-5H-benzo[6,7]cyclohepta[1,2-c]pyridazin-3-yl)-N^5-(4-((4-isopropylpiperazinyl)methyl)phenyl)-1H-1,2,4-triazole-3,5-diamine] | 1 to 10 | 
CN1CCC(N2CCN(c3ccc(Nc4nc(N)nn4-c4cc5c(nn4)-c4ccccc4CCC5)cc3F)CC2)CC1 [Compound 168, 1-(6,7-dihydro-5H-benzo[6,7]cyclohepta[1,2-c]pyridazin-3-yl)-N^5-(3-fluoro-4-(4-N-methylpiperid-4-ylpiperazinyl)phenyl)-1H-1,2,4-triazole-3,5-diamine] | 1 to 10 | 
CN1CCC2(CCN(c3ccc(Nc4nc(N)nn4-c4cc5c(nn4)-c4ccccc4CCC5)cc3F)C2)C1 (centres unmarked) [Compound 169, 1-(6,7-dihydro-5H-benzo[6,7]cyclohepta[1,2-c]pyridazin-3-yl)-N^5-(3-fluoro-4-(7-methyl-2,7-diazaspiro[4.4]nonan-2-yl)phenyl)-1H-1,2,4-triazole-3,5-diamine] | 1 to 10 | 
Nc1nc(Nc2ccc(N3CC(N4CCCC4)C3)c(F)c2)n(-c2cc3c(nn2)-c2ccccc2CCC3)n1 [Compound 170, 1-(6,7-dihydro-5H-benzo[6,7]cyclohepta[1,2-c]pyridazin-3-yl)-N^5-(3-fluoro-4-(3-pyrrolidin-1-ylazetidinyl)phenyl)-1H-1,2,4-triazole-3,5-diamine] | 1 to 10 | 
Cc1cc(Nc2nc(N)nn2-c2cc3c(nn2)-c2ccccc2CCC3)ccc1N1CCC(N2CCN(C)CC2)CC1 [Compound 171, 1-(6,7-dihydro-5H-benzo[6,7]cyclohepta[1,2-c]pyridazin-3-yl)-N^5-(3-methyl-4-(4-(N-methylpiperazin-4-yl)piperidin-1-yl)phenyl)-1H-1,2,4-triazole-3,5-diamine] | > 20 | 
Nc1nc(Nc2ccc(N3CCC(N4CCCC4)CC3)cc2)n(-c2cc3c(nn2)-c2ccccc2SCC3)n1 [Compound 172, 1-(6,7-dihydro-5H-benzo[2,3]thiepino[4,5-c]pyridazin-3-yl)-N^5-(4-(4-pyrrolidin-1-ylpiperidinyl)phenyl)-1H-1,2,4-triazole-3,5-diamine] | > 20 | 
Cc1cc(Nc2nc(N)nn2-c2cc3c(nn2)-c2ccccc2CCC3)cnc1N1CCC(N2CCCC2)CC1 [Compound 173, 1-(6,7-dihydro-5H-benzo[6,7]cyclohepta[1,2-c]pyridazin-3-yl)-N^5-(6-(4-(pyrrolidin-1-yl)piperidin-1-yl)-5-methylpyridin-3-yl)-1H-1,2,4-triazole-3,5-diamine] | 1 to 10 | 
Nc1nc(Nc2ccc(N3CCC(N4CCCC4)C3)c(F)c2)n(-c2cc3c(nn2)-c2ccccc2CCC3)n1 (centres unmarked) [Compound 174, 1-(6,7-dihydro-5H-benzo[6,7]cyclohepta[1,2-c]pyridazin-3-yl)-N^5-(3-fluoro-(4-(3-pyrrolidin-1-yl)pyrrolidin-1-yl)phenyl)-1H-1,2,4-triazole-3,5-diamine] | 1 to 10 | 
CN1CCN(C2CCN(c3ccc(Nc4nc(N)n(-c5cc6c(nn5)-c5ccccc5OC65CCCC5)n4)cc3F)CC2)CC1 [Compound 175, 1-(spiro[chromeno[4,3-c]pyridazine-5,1′-cyclopentane]-3-yl)-N^3-(3-fluoro-4-(4-(4-methylpiperazin-1-yl)piperidin-1-yl)phenyl)-1H-1,2,4-triazole-3,5-diamine] |  | IC50 [1]: 10 to 20 µM
